We go through 3 molecules from patent US20190065668A1, “STRUCTURE OF […] IN COMPLEX WITH AN INHIBITOR AND USES THEREOF” (priority 2015, published 2019).

pEC50, pIC50, pKd: −log10 of the molar value. Counter-ions that a name gives are not always drawn. Like-named read-outs stand apart in the source and are kept apart here.

As a reminder, the pEC50 is the EC50 on a negative log10 scale, so that one unit is a factor of ten. Broadly, the pKd is the Kd on a negative log10 scale, so that one unit is a factor of ten. Broadly, the Km is the substrate concentration at which the rate is half of its maximum. As usually defined, the pIC50 is the IC50 on a negative log10 scale, so that one unit is a factor of ten.

For experiment [1], the system named is plasmepsin V cleavage of the PEXEL in PfEMP3-GFP. Nature of the experiment: PfEMP3-GFP PEXEL processing in P. falciparum trophozoites (immunoblot / 35S radiolabelling and immunoprecipitation). Format: cell-based, Plasmodium falciparum. The text has this: P. falciparum 3D7 expressing the PEXEL protein erythrocyte membrane protein 3 (PfEMP3) fused to green fluorescent protein (GFP) (PfEMP3-GFP) was generated previously (Boddey, J. A. et al, 2010) (see FIG. 2C).
Membranes were probed with mouse a-GFP (Roche; 1:1000), rabbit a-Aldolase (1:1000) or rabbit a-HSP70 (1:4000) antibodies followed by horseradish peroxidase-conjugated secondary antibodies (Silenius; 1:2000) and visualized using enhanced chemiluminescence (Amersham). To radiolabel P. falciparum proteins, magnet-purified trophozoites expressing PfEMP3-GFP were treated with 10 μM inhibitors for 3 hr. […] PfEMP3-GFP protein species were then immunoprecipitated from parasite lysates solubilized in 1% Triton X-100/PBS containing 1× complete protease inhibitors (Roche) using anti-GFP agarose (MBL) for 2 hours at 4° C. and proteins were resolved by SDS-PAGE, visualized by autoradiography and quantified using a GS-800 Calibrated Densitometer (Bio-Rad) (Sleebs, B. E. et al. 2014a).
(In western blotting, separated proteins are transferred to a membrane and probed.)

Another experiment relates to P. falciparum parasites. Nature of the experiment: P. falciparum growth assay, parasitaemia at 72 hr by flow cytometry. On the technique in general: In flow cytometry, cells or beads pass a laser one at a time.
Experiment [2] concerns the target T1, recombinant P. falciparum plasmepsin V (Plasmodium falciparum, UniProt Q8I6Z5).
T1 construct: FLAG tag + SUMO domain + TEV protease cleavage site (secreted via signal peptide) (N, cleaved yes); made in house; host or cells: sf21 insect cells
Briefly: Fluorogenic PEXEL cleavage assay (KAHRP FRET peptide), inhibition of recombinant P. falciparum plasmepsin V. Format: biochemical. As for the experimental part: (§1) PEXEL cleavage assays (20 μl total volume) consisted of 1 ng/well of P. vivax plasmepsin V or 1.5 ng/well of P. falciparum plasmepsin V in buffer (25 mM Tris.HCl, 25 mM MES, pH 6.4) with 5 μM FRET peptide substrate (DABCYL-[…]-E-EDANS (SEQ ID NO:7) or peptides with the sequence DABCYL-[…]-E-EDANS (SEQ ID NO:8) or DABCYL-[…]-E-EDANS (SEQ ID NO:9)) (Sleebs, B. E. et al. 2014a; see FIG. 9). Samples were incubated at 37° C. for 120 min and measured using an Envision plate (Perkin-Elmer) reader (Ex 340 nm/Em 490 nm).
Reactions comprised of a fluorescent peptide of nine amino acids containing the PEXEL sequence (RTLAQ) from KAHRP. The KAHRP PEXEL peptide substrate DABCYL-[…]-E-EDANS (SEQ ID NO:7) was obtained commercially and used at a final assay concentration of 7.5 μM.
The end-point for all assays was set within the linear range of activity (approximately 1 hr.).
Tween-20 was used at 0.005% final assay concentration. Final assay buffer concentration was as follows: 25 mM Tris HCl, 25 mM MES (pH 6.4). Final assay volume was 20 μL.
An 11-point 1/3 serial dilution of compounds was generated using DMSO as a diluent (final assay concentration of 1%).
Assay reaction was incubated for 60 min at 37° C. and read using a fluorescence plate reader (Ex 340 nm, Em 495 nm). […]

Experiment [3] addresses T2, P. vivax plasmepsin V (Plasmodium vivax, UniProt A5K302).
T2 construct: gp67 signal peptide + FLAG tag + SUMO domain + TEV protease cleavage site (N, cleaved yes); made in house; host or cells: High Five insect cells
Briefly: Surface plasmon resonance (Biacore 4000) direct binding. As to conditions: SPR; for pKd: 25° C., 1:1 interaction model, read-out: affinity (KD) for P. vivax plasmepsin V; for kd (off-rate): P. vivax plasmepsin V. As for the experimental part: Surface plasmon resonance was performed using a Biacore 4000 (GE Healthcare). Plasmepsin V was immobilized on a Series S CM5 sensor chip using amine-coupling chemistry. The surfaces of flow cells were activated for 10 min with a 1:1 mixture of 0.1 M NHS (N-hydroxysuccinimide) and 0.1 M EDC (3-(N,N-dimethylamino)propyl-N-ethylcarbodiimide) at a flow rate of […]. […] Compounds were allowed to associate and dissociate for 250 s and 600 s, respectively. Data were collected at a rate of 10 Hz and fit to a 1:1 interaction model using the Biacore 4000 Evaluation Software Version 1.0.
On the technique in general: In SPR one partner is held on a chip, and binding of the other changes the refractive index at the surface.

The subject of experiment [4] is export of PfEMP3-GFP to P. falciparum-infected erythrocytes. Nature of the experiment: Pulse chase of PfEMP3-GFP processing and export to infected erythrocytes (tetanolysin release). Conditions: for export of PfEMP3-GFP to parasite-infected erythrocytes: 10 μM pre-treatment 3 hr.
For experiment [5], the target named is T2, P. vivax plasmepsin V. Nature of the experiment: Kinetic characterisation of recombinant plasmepsin V (Michaelis-Menten / Lineweaver-Burk), P. vivax enzyme. As to conditions: fluorogenic PEXEL substrate from KAHRP. Format: biochemical. As for the experimental part: (§2) The in vitro activity of recombinant P. falciparum and P. vivax plasmepsin V was assessed against a fluorogenic peptide of nine amino acids that contained the PEXEL sequence from knob-associated histidine-rich protein (“KAHRP”) (DABCYL-[…]-E-EDANS; SEQ ID NO: 7).
(§3) Values for Km were derived from both the inverse Michaelis-Menten and the Lineweaver-Burk plots. These values were of the same magnitude for each enzyme and are also similar to the Km derived from the activity of another recombinant form of P. falciparum plasmepsin V on a different PEXEL substrate (Xiao, H. et al. 2014).
as §1

The target in experiment [6] is T1, recombinant P. falciparum plasmepsin V. Briefly: Kinetic characterisation of recombinant plasmepsin V (Michaelis-Menten / Lineweaver-Burk), P. falciparum enzyme. As to conditions: fluorogenic PEXEL substrate from KAHRP. The format is biochemical. As for the experimental part:
as §2, §3, §1

The test system of experiment [7] is plasmepsin V cleavage of the PEXEL in PfEMP3-GFP. Conditions: PfEMP3-GFP processing; from Sleebs, B. E. et al. 2014; cited from earlier work.
Experiment [8] deals with T2, P. vivax plasmepsin V. Briefly: Fluorogenic PEXEL cleavage assay (KAHRP FRET peptide), inhibition of recombinant P. vivax plasmepsin V. The format is biochemical. Conditions: KAHRP fluorogenic substrate 7.5 μM, 60 min, 37° C., pH 6.4.
The mark [9] stands for this setting: read-out: EC50, inhibition of growth of P. falciparum (3D7) parasites, 3D7, chloroquine-sensitive strain, 72 hr.

T1 sequence (Q8I6Z5 80-528): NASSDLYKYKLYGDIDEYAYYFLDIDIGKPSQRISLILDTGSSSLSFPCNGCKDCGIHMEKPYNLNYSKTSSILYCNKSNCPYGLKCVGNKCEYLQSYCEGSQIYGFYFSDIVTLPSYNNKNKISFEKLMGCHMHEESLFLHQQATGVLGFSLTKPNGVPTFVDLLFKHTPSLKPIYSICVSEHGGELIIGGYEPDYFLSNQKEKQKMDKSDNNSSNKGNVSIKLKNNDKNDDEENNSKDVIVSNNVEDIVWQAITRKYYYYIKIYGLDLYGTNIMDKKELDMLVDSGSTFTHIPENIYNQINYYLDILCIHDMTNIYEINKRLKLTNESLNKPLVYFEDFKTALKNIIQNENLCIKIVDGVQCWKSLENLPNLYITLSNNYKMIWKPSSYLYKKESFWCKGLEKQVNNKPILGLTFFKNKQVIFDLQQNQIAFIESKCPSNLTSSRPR
T2 sequence (A5K302 33-476, looked up, natural form): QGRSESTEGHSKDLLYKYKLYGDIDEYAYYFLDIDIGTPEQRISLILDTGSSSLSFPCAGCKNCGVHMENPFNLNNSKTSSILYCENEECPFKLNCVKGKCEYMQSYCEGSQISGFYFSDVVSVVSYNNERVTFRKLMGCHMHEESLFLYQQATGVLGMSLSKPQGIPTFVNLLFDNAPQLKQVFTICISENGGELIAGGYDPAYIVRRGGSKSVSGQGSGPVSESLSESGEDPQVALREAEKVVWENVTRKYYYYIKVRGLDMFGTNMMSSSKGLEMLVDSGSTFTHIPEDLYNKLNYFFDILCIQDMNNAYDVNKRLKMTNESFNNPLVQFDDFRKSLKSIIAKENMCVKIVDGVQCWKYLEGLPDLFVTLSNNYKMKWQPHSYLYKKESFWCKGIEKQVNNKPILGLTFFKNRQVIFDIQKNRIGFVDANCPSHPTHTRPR

Take `CC(C)C[C@H](NC(=O)[C@@H](NC(=O)[C@H](CCON=C(N)N)NC(=O)OCc1ccccc1)C(C)C)[C@@H](O)CC(=O)NCCc1ccccc1` [WEHI-842, Cbz-Cav(NH2)—Val-Sta-NH(CH2)2Ph.TFA]: the “inhibition of plasmepsin V cleavage of PfEMP3-GFP” value in experiment [1] (10 μM, 3 hours, immunoblot) is “potently inhibited plasmepsin V cleavage of PfEMP3-GFP”. Also, the “time required for optimal inhibition of plasmepsin V in parasites” value in experiment [1] (PfEMP3-GFP processing) was determined as 3 h. Moreover, in experiment [1] (PfEMP3-GFP, immunoblot), the “degree of PEXEL processing inhibition compared to WEHI-916” value turned out to be 10 fold. Also, in [1] (parasites expressing PfEMP3-GFP, immunoblot), the “inhibition of PEXEL cleavage (accumulation of 35 kDa full-length PfEMP3-GFP)” value is recorded as “efficiently inhibited PEXEL cleavage”. In addition, the pEC50 was 6.40 in the experiment with P. falciparum parasites (setting [9]); 6.08 in the experiment on P. falciparum parasites (read-out: EC50, inhibition of growth of P. falciparum CS2, CS2, 72 hr); 6.33 in the experiment on P. falciparum parasites (read-out: EC50, inhibition of growth of P. falciparum NF54, NF54, 72 hr); 6.19 in the experiment with P. falciparum parasites (read-out: EC50, inhibition of growth of P. falciparum W2mef, W2mef (chloroquine-resistant), 72 hr). Moreover, the “increased potency against recombinant P. falciparum plasmepsin V compared to WEHI-916” value in experiment [2] (ratio of IC50 values) stood at 15 fold. For the same molecule, on P. vivax plasmepsin V [3], the pKd was 7.87. The “kd (off-rate)” value at P. vivax plasmepsin V [3] is recorded as 1.11 E-03 1/s. In addition, the “reversibility of inhibition of PEXEL cleavage after removal of inhibitor” value in experiment [4] (10 μM 3 hr, then inhibitor-free medium 30 and 60 min) is reported as “reversible”. The “export of PfEMP3-GFP to parasite-infected erythrocytes” value in experiment [4] (chase 20, 40 and 60 min) is listed as “dramatically reduced export”; in [4] (chase 120 min) it was “Efficient export of PfEMP3-GFP returned”.
Regarding “DABCYL-RNKRTLAQKQ-E-EDANS [fluorogenic PEXEL substrate from KAHRP]”, the figures for the Km (at P. vivax plasmepsin V [5]; in [6]) were 6 µM and 20.2 µM, respectively.
On to `CC(C)C[C@H](NC(=O)[C@@H](NC(=O)[C@H](CCCNC(=N)N)NS(=O)(=O)Cc1ccccc1)C(C)C)[C@@H](O)CC(=O)NCCc1ccccc1` [WEHI-916, reference compound], for which, in [7], the “time required for optimal inhibition of plasmepsin V in parasites” value is 5 h. Besides, the negative logarithm of the EC50 (pEC50) in the experiment on P. falciparum parasites (read-out: EC50, blocking P. falciparum growth, summary statement, strain not stated) was 5.30; in the experiment on P. falciparum parasites (setting [9]) it was 5.30. Also, the pIC50 in [2] (KAHRP fluorogenic substrate 7.5 μM, 60 min, 37° C., pH 6.4, read-out: IC50 against recombinant P. falciparum plasmepsin V) is 7.89; on P. vivax plasmepsin V [8], 8.09. In addition, on P. vivax plasmepsin V [3], the negative-log Kd (pKd) was 7.38. Further, the “kd (off-rate)” value at P. vivax plasmepsin V [3] was 2.47 E-03 1/s.
